Reference: ChEMBL document CHEMBL1151498, “Synthesis and biological evaluation of 23-oxa-, 23-thia- and 23-oxa-24-oxo-1,25-dihydroxyvitamin D3” (1993)

What was measured:
[1] = molecular target: T1, Vitamin D3 receptor (Homo sapiens) (UniProt P11473); assay: Compound was tested to assess the relative affinity for the intestinal mucosal vitaminD receptor
T1 sequence (whole entry): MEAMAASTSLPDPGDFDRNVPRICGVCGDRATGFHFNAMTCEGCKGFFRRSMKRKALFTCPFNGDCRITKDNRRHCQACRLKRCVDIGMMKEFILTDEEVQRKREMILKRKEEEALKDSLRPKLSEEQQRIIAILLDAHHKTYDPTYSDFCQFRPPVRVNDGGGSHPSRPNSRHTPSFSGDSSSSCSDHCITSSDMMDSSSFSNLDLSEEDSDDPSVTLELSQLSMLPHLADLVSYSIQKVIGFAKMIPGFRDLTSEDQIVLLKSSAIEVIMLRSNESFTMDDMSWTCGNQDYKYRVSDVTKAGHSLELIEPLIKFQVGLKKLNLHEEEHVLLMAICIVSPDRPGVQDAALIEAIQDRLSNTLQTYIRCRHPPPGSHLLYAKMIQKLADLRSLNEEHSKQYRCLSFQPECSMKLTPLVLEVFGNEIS

HL-60 [2] = assay: Ability to induce differentiation of human promyeloid leukemia cells (HL-60); type: functional
HL-60 [3] = assay: Compound was tested to induce differentiation of human promyeloid leukemia cells (HL-60); type: functional

Structure (SMILES)	Relative affinity [1]	Relative activity (HL-60 [2])	Relative activity (HL-60 [3])
C=C1/C(=C\C=C2/CCC[C@]3(C)[C@@H]([C@H](C)COCC(C)(C)O)CC[C@@H]23)C[C@@H](O)C[C@@H]1O	2	9	
C=C1/C(=C\C=C2/CCC[C@]3(C)[C@@H]([C@H](C)COC(=O)C(C)(C)O)CC[C@@H]23)C[C@@H](O)C[C@@H]1O	26		6
C=C1/C(=C\C=C2/CCC[C@]3(C)[C@@H]([C@H](C)CSCC(C)(C)O)CC[C@@H]23)C[C@@H](O)C[C@@H]1O	13		29
